Results from PubChem BioAssay AID248 (DTP/NCI, 2004).
“And” between values parts separate entries of the source, which are not always exact repeats. Identical values can stand only once. Toxic doses and inconclusive results are not listed. No stated cut-off is given here; in the data, active means T/C of 150% or more; inactive means T/C below 125%.

Tested on: L1210 leukemia ip in BDF1 mice, survival T/C
Assay: NCI In Vivo Anticancer Drug Screen. Data for tumor model L1210 Leukemia (intraperitoneal) in B6D2F1 (BDF1) mice
Settings: endpoint: mean survival time, higher = longer survival
Method in brief: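 Transplanted-tumor mice were given test agent; controls received vehicle only. Survival readings from the two groups were divided (treated over control).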

Measured: T/C

O=c1[nH]c(=O)n(C2CC(O)C(CO)O2)cc1C(F)(F)F (stereo not drawn)
active: dose: 9.0 mg/kg/injection, schedule: Q01DX Z (ip), vehicle: saline 153 % of control | dose: 18.0 mg/kg/injection, schedule: Q01DX Z (ip), vehicle: saline 150 % of control | dose: 25.0 mg/kg/injection, schedule: Q01DX015 (ip), vehicle: saline 152 % of control | dose: 25.0 mg/kg/injection, schedule: Q01DX Z (ip), vehicle: saline 160 % of control | dose: 50.0 mg/kg/injection, schedule: Q01DX Z (ip), vehicle: saline 154 % of control | dose: 50.0 mg/kg/injection, schedule: Q01DX Z (sc), vehicle: saline 156 % of control | dose: 64.0 mg/kg/injection, schedule: Q01DX009 (ip), vehicle: water 156 % of control | dose: 65.0 mg/kg/injection, schedule: Q01DX Z (ip), vehicle: water 157 % of control | dose: 100.0 mg/kg/injection, schedule: Q01DX Z (im), vehicle: saline 154 % of control | dose: 107.0 mg/kg/injection, schedule: Q01DX Z (ip), vehicle: water 154 % of control | dose: 128.0 mg/kg/injection, schedule: Q01DX009 (ip), vehicle: water 151 % of control | dose: 150.0 mg/kg/injection, schedule: Q01DX Z (ip), vehicle: saline 159 % of control | dose: 200.0 mg/kg/injection, schedule: Q01DX Z (sc), vehicle: saline 160 % of control
inactive: dose: 0.16 mg/kg/injection, schedule: Q#B X045 (ip), vehicle: saline 109 % of control | dose: 0.33 mg/kg/injection, schedule: Q#B X045 (ip), vehicle: saline 119 % of control | dose: 0.56 mg/kg/injection, schedule: Q01DX Z (ip), vehicle: saline 112 % of control | dose: 0.66 mg/kg/injection, schedule: Q#B X045 (ip), vehicle: saline 122 % of control | dose: 1.12 mg/kg/injection, schedule: Q01DX Z (ip), vehicle: saline 106 % of control | dose: 1.5 mg/kg/injection, schedule: Q01DX Z (sc), vehicle: saline 112 % of control | dose: 2.25 mg/kg/injection, schedule: Q01DX Z (ip), vehicle: saline 118 % of control | dose: 3.0 mg/kg/injection, schedule: Q01DX Z (sc), vehicle: saline 114 % of control | dose: 3.12 mg/kg/injection, schedule: Q01DX Z (im), vehicle: saline 104 % of control | dose: 4.5 mg/kg/injection, schedule: Q01DX Z (ip), vehicle: saline 114 % of control | dose: 6.0 mg/kg/injection, schedule: Q01DX Z (sc), vehicle: saline 118 % of control | dose: 6.25 mg/kg/injection, schedule: Q01DX006 (iv), vehicle: saline 121 % of control | dose: 6.25 mg/kg/injection, schedule: Q01DX015 (ip), vehicle: saline 120 % of control | dose: 12.0 mg/kg/injection, schedule: Q01DX Z (sc), vehicle: saline 118 % of control | dose: 12.5 mg/kg/injection, schedule: Q01DX006 (iv), vehicle: saline 115 % of control | dose: 12.5 mg/kg/injection, schedule: Q01DX Z (oral), vehicle: saline 120 % of control | dose: 18.75 mg/kg/injection, schedule: Q#A X034 (ip), vehicle: water 122 % of control | dose: 20.0 mg/kg/injection, schedule: Q01DX009 (oral), vehicle: saline 116 % of control | dose: 20.0 mg/kg/injection, schedule: Q01DX Z (ip), vehicle: saline 119 % of control | dose: 25.0 mg/kg/injection, schedule: Q01DX Z (oral), vehicle: saline 120 % of control | dose: 38.0 mg/kg/injection, schedule: Q01DX Z (ip), vehicle: water 117 % of control | dose: 40.0 mg/kg/injection, schedule: Q01DX009 (oral), vehicle: saline 121 % of control | dose: 45.0 mg/kg/injection, schedule: Q01DX015 (oral), vehicle: saline 122 % of control | dose: 65.0 mg/kg/injection, schedule: Q01DX015 (oral), vehicle: saline 104 % of control | dose: 100.0 mg/kg/injection, schedule: Q01DX001 (ip), vehicle: saline 106 % of control and 107 % of control | dose: 100.0 mg/kg/injection, schedule: Q01DX015 (oral), vehicle: saline 120 % of control | dose: 100.0 mg/kg/injection, schedule: Q## X001 (ip), vehicle: saline 103 % of control | dose: 128.0 mg/kg/injection, schedule: Q01DX001 (oral), vehicle: saline 112 % of control | dose: 128.0 mg/kg/injection, schedule: Q## X003 (oral), vehicle: saline 119 % of control | dose: 128.0 mg/kg/injection, schedule: Q## X024 (oral), vehicle: saline 115 % of control | dose: 150.0 mg/kg/injection, schedule: Q04DX005 (ip), vehicle: water 118 % of control | dose: 150.0 mg/kg/injection, schedule: Q#A X034 (ip), vehicle: water 124 % of control | dose: 180.0 mg/kg/injection, schedule: Q01DX Z (ip), vehicle: water 122 % of control | dose: 200.0 mg/kg/injection, schedule: Q01DX001 (ip), vehicle: saline 109 % of control | dose: 200.0 mg/kg/injection, schedule: Q## X001 (ip), vehicle: saline 111 % of control
